Data reported in patent US6613572B2, “Agent for expression of long-term potentiation of synaptic transmission comprising compound having brain somatostatin activation property” (priority 1999, dated 2003).

How the values were obtained:
[1] = system: voltage-dependent calcium channel of hippocampus pyramidal cell; experiment: Effect of somatostatin and compound 1 on voltage-dependent Ca2+ current of rat hippocampus pyramidal cell; format: cell-based; conditions: compound 1 10^-7 M plus somatostatin 10^-7 M
Method: Hippocampal slices were prepared from the brains of 5- to 14-day-old male Wistar rats and the nerve cells were quickly isolated by trypsin enzyme treatment method. According to the whole cell patch-clamp method, the membrane potential of hippocampus pyramidal cell was fixed at −80 mV and the membrane potential-dependent […] current (Ica) was measured in Cs^+ electrode inner solution and Ba^2+ bath outer solution. The resistance of the electrode was 2-4 MΩ. Compound 1 was added to bath outer solution concentrations of 0.01 μM, 0.1 μM and 1.0 μM, respectively, and perfused with the bath outer solution. Nothing was added to the bath outer solution for the control group. The maximal value of the current (peak amplitude) was measured, and calculated as the variation (%) relative to the value before addition of compound 1. Each value (%) was expressed by mean±S.E.M. The number of measurements was 7. The property of compound 1 was evaluated by Dunnett's multiple comparison test relative to the control group. […]

[2] = system: voltage-dependent calcium channel of hippocampus pyramidal cells; experiment: Voltage-dependent Ca2+ current of rat hippocampus pyramidal cell, whole cell patch-clamp; format: cell-based
Method: Hippocampal slices were prepared from the brains of 5- to 14-day-old male Wistar rats and the nerve cells were quickly isolated by trypsin enzyme treatment method. According to the whole cell patch-clamp method, the membrane potential of hippocampus pyramidal cell was fixed at −80 mV and the membrane potential-dependent […] current (Ica) was measured in Cs^+ electrode inner solution and Ba^2+ bath outer solution. The resistance of the electrode was 2-4 MΩ. Compound 1 was added to bath outer solution concentrations of 0.01 μM, 0.1 μM and 1.0 μM, respectively, and perfused with the bath outer solution. Nothing was added to the bath outer solution for the control group. The maximal value of the current (peak amplitude) was measured, and calculated as the variation (%) relative to the value before addition of compound 1. Each value (%) was expressed by mean±S.E.M. The number of measurements was 7. The property of compound 1 was evaluated by Dunnett's multiple comparison test relative to the control group.

[3] = system: mossy fiber-CA3 field pyramidal cell of hippocampal slice; experiment: LTP in mossy fiber-CA3 field pyramidal cell of hippocampal slice, population spikes after tetanic stimulation; format: cell-based, guinea pig
Method: Slices (thickness 500 μm, round slice) were prepared from hippocampus removed from male Hartley guinea pigs (body weight 220-350 g) and population spikes were extracellularly recorded. The hippocampal slices were perfused with an artificial cerebrospinal fluid (33-34° C., composition: NaCl, 124 mM; KCl, 5 mM; KH2PO4, 1.24 mM; MgSO4, 1.3 mM; CaCl2, 2.4 mM; NaHCO3, 26 mM; D-glucose, 10 mM) saturated with a mixed gas of oxygen (95%) and carbon dioxide (5%) at flow rate of 1.8-2.0 ml/min. Mossy fiber was stimulated with a stimulating electrode at a voltage of not more than 10 V, frequency of 0.2 Hz and the population spikes in the CA3 field pyramidal cell layer was recorded every 5 minutes. When the population spikes to be recorded were stabilized, tetanic stimulation for induction of LTP was applied. The tetanic stimulation includes stimulation at the same voltage of not more than 10 V, as when the stimulation was applied at a frequency of 0.2 Hz, but upon increase of the frequency to 33 Hz for 5 seconds. The height of from negative peak to the next positive peak of the obtained population spikes after stimulation was measured and taken as an amplitude (population spike amplitude; PSA). The degree of LTP was expressed by a potential variation (%) by the increase in the amplitude of population spikes after tetanic stimulation relative to the average of 4 measurements of the amplitudes of population spikes obtained before tetanic stimulation. Each value was expressed by mean±S.E.M (the number of slices tested was 3 to 8). As the index of the property of a drug, the area (%·min) between the graph from 12 minutes to 62 minutes after tetanic stimulation and the line where the potential variation is 0%, in the time lapse graph of potential variation, was calculated and taken as the magnitude of LTP. Compound 1 was dissolved in and diluted with distilled water and added to perfusate to the concentration of 10^−9 M, 10^−8 M, 10^−7 M and 10^−6 M, respectively, and applied to a hippocmpal slice for […] from 2 minutes before the tetanic stimulation to 4 minutes thereafter. Nothing was added to perfusate for control group.
The property of compound 1 relative to the magnitude of LTP was tested by one-way analysis of variance and Dunnett's multiple comparison test.

rat hippocampal slice = experiment: Somatostatin release from rat hippocampal slice upon high K+ (50 mM) stimulation, radioimmunoassay; format: cell-based; conditions: property significant at 10^-7 M and 10^-6 M vs control (Dunnett)
Method: Rat hippocampal slices (thickness 350 μm, round slice) were prepared by a standard method. Twenty rat hippocampal slices were placed in a perfusion chamber, incubated at 37° C. and perfused by a batch method while exchanging the incubation buffer every 10 minutes. The incubation buffer used had the composition as noted below. A mixed gas of oxygen (95%) and carbon dioxide (5%) was used to saturate the buffer. Composition of incubation buffer: NaCl, 124 mM; KCl, 5 mM; KH2PO4, 1.24 mM; MgSO4, 1.3 mM; CaCl2, 2.4 mM; NaHCO3, 26 mM; D-glucose, 10 mM
Perfusion for 150 minutes gave fractions 1-15. To fraction 9 was applied a high K^+ (50 mM) stimulation. Compound 1 was added to fractions 7-15 to the concentration of 10^−9 M, 10^−7 M, […], 10^−6 M, respectively. […] The respective fractions thus obtained were concentrated by lyophilization and somatostatin in the perfusate was quantified by radioimmunoassay (RIA). After the completion of the experiment, somatostatin remaining in the slices was extracted by a conventional method and quantified by radioimmunoassay. The somatostatin amount released by high K^+ (50 mM) stimulation was calculated and the amount of somatostatin released due to the property of compound 1 was measured.
Somatostatin release (%) by compound 1 at each concentration was calculated as in the following. […] The number of the test samples measured was 10 or 11. […]

CC(=O)N1CCN(NC(=O)c2ccc(F)cc2)CC1.O [Compound 1, N-(4-acetyl-1-piperazinyl)-p-fluorobenzamide monohydrate]
suppressive property of somatostatin on calcium current in the presence of compound 1 [1]: completely released | membrane potential-dependent calcium current (variation of peak amplitude) ([2]; 0.01 μM, 0.1 μM and 1.0 μM, compared to control group, holding -80 mV): significantly promoted | shape of dose dependency of the calcium current promotion ([2]; 0.01 to 1.0 μM): bell-shape dose dependency | potential variation after tetanic stimulation (magnitude of LTP, 12 to 62 min) ([3]; at 10^-7 M and 10^-6 M): increased potential variation | response of base before tetanic stimulation (potential variation) ([3]; before tetanic stimulation, compound applied to slice in perfusate): no significant influence | LTP enhancing property in hippocampal slice from guinea pig treated with cysteamine ([3]; cysteamine 200 mg/kg, compound 1 at 10^-7 M): did not show LTP enhancing property | concentration at which the action on LTP was maximal ([3]; tested at 10^-9 to 10^-6 M): 10^−7 M | somatostatin release (%) (rat hippocampal slice): promoted somatostatin release
